Measured values: publication PMC4715686 (Chemical biology & drug design, 2015)

Assays:
[1] = target: rhodesain (Trypanosoma brucei rhodesiense, UniProt Q95PM0); test: Rhodesain inhibition assay; format: biochemical, T. brucei rhodesiense
[2] = Hep G2 cell viability, MTT assay; format: cell-based; details: human
[3] = test system: T. brucei brucei 427 strain; test: Antitrypanosomal activity, Alamar blue assay; format: cell-based; details: for IC50: Trypanosoma brucei, 24 h, read-out: IC50 T. brucei

SMILES | IC50 [1] | viability at 72 h, 20 µM [2] | IC50 [3] | inhibitory activity against rhodesain (in words) [1] | activity against T. brucei (in words) [3] | selectivity for the parasite over Hep G2 cells (in words) ([3]; T. brucei vs Hep G2 cells)
Nc1ccc(-c2nc3ccc(Cc4ccc5nc(-c6ccc(N)cc6)[nH]c5c4)cc3[nH]2)cc1 [Compound 1, 4,4′-[methylenebis(1H-benzimidazole-6,2-diyl)]-dianiline] | 890 ± 100 nM | 84.7 ± 5.79% | 5800 ± 1000 nM | – | – | –
O=C(c1ccccc1)c1ccc2[nH]c(-c3ccc(NC(=O)c4ccccc4Cl)cc3)nc2c1 [Compound 7, N-[4-(5-benzoyl-1H-benzimidazol-2-yl)phenyl]-2-chlorobenzamide] | > 20000 nM | 86.2 ± 9.67% | 2830 ± 260 nM | did not display any inhibitory activity | active | considerable selectivity
